In ChEMBL document CHEMBL3352002, “Discovery of diethyl 2,5-diaminothiophene-3,4-dicarboxylate derivatives as potent anticancer and antimicrobial agents and screening of anti-diabetic activity: synthesis and in vitro biological evaluation. Part 1” (Eur J Med Chem, 2014):

What was measured:
T47D = test: Anticancer activity against human T47D cells assessed as inhibition of tumor cell proliferation after 48 hrs by MTT assay; format: functional, cell-based
MCF7 = test: Anticancer activity against human MCF7 cells assessed as inhibition of tumor cell proliferation after 48 hrs by MTT assay; format: functional, cell-based; conditions: MCF7, 48 h
HeLa = test: Anticancer activity against human HeLa cells assessed as inhibition of tumor cell proliferation after 48 hrs by MTT assay; format: functional, cell-based
Ishikawa = test: Anticancer activity against human Ishikawa cells assessed as inhibition of tumor cell proliferation after 48 hrs by MTT assay; format: functional, cell-based
Staphylococcus aureus = test: Antimicrobial activity against Staphylococcus aureus ATCC 6538 assessed as inhibition zone after 24 hrs by agar well diffusion method; format: functional; note: test concentration or dose not given here
Escherichia coli = test: Antimicrobial activity against Escherichia coli ATCC 11229 assessed as inhibition zone after 24 hrs by agar well diffusion method; format: functional; note: test concentration or dose not given here
Candida albicans = test: Antimicrobial activity against Candida albicans ATCC 10231 assessed as inhibition zone after 24 hrs by agar well diffusion method; format: functional; note: test concentration or dose not given here
[1] = biological target: T1, Tyrosine-protein phosphatase non-receptor type 1 (Homo sapiens, UniProt P18031); test: Inhibition of PTP-1B (unknown origin) using pNPP substrate measured after 30 mins
T1 sequence (P18031 whole entry): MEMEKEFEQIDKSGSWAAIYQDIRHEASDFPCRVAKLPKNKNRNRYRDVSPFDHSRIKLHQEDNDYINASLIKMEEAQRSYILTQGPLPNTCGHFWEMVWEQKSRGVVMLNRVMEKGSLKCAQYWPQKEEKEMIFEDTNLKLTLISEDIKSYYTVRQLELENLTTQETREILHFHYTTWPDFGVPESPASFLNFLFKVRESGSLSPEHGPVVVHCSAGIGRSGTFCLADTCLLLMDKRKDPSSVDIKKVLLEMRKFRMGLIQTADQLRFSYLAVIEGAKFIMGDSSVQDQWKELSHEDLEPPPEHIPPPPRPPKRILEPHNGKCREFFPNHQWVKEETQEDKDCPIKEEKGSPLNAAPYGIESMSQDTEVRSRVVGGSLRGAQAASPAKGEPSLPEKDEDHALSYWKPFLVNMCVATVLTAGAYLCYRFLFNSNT

SMILES	IC50 (T47D)	IC50 (MCF7)	IC50 (HeLa)	IC50 [1]	IC50 ([1]; read-out: IC50)	IC50 (Ishikawa)	diameter of the inhibition zone (DIZ) (Staphylococcus aureus)	diameter of the inhibition zone (DIZ) (Escherichia coli)	diameter of the inhibition zone (DIZ) (Candida albicans)
CCOC(=O)c1c(N)sc(/N=C/c2ccccc2)c1C(=O)OCC	30.3 µM	6.1 µM	31.2 µM	Not Active		37.9 µM	9 mm	<5.5 mm	8 mm
CCOC(=O)c1c(N)sc(/N=C/c2ccc(F)cc2)c1C(=O)OCC	22.5 µM	22.5 µM	30.8 µM	Not Active		32.1 µM	10 mm	<5.5 mm	8 mm
CCOC(=O)c1c(N)sc(/N=C/c2ccc(OC)cc2)c1C(=O)OCC	31.9 µM	16.2 µM	189 µM	Not Active		108 µM	9 mm	<5.5 mm	9 mm
CCOC(=O)c1c(N)sc(/N=C/c2ccc(C)cc2)c1C(=O)OCC	37.2 µM	8.9 µM	41.9 µM	Not Active		52.5 µM	10 mm	<5.5 mm	8 mm
CCOC(=O)c1c(N)sc(/N=C/c2ccc(N(C)C)cc2)c1C(=O)OCC	16.7 µM	5.7 µM	131 µM		7.32 µM	73 µM	11.5 mm	<5.5 mm	8 mm
CCOC(=O)c1c(N)sc(/N=C/c2ccc([N+](=O)[O-])o2)c1C(=O)OCC	16 µM	2.4 µM	4.7 µM		7.12 µM	7.6 µM	22 mm	16 mm	>22 mm
C[C@@H]1[C@H](O)[C@@H](C)/C=C/C=C/C=C/C=C/C=C/C=C/C=C/[C@H](O[C@@H]2O[C@H](C)[C@@H](O)[C@H](N)[C@@H]2O)C[C@@H]2O[C@](O)(C[C@@H](O)C[C@@H](O)[C@H](O)CC[C@@H](O)C[C@@H](O)CC(=O)O[C@H]1C)C[C@H](O)[C@H]2C(=O)O [AMPHOTERICIN B]							15 mm		
CC1(C)S[C@@H]2[C@H](NC(=O)[C@H](N)c3ccccc3)C(=O)N2[C@H]1C(=O)O [AMPICILLIN]								19 mm	14 mm
COc1cccc2c1C(=O)c1c(O)c3c(c(O)c1C2=O)C[C@@](O)(C(=O)CO)C[C@@H]3O[C@H]1C[C@H](N)[C@H](O)[C@H](C)O1 [DOXORUBICIN]	15.5 µM	6.75 µM	7.04 µM			9.02 µM			

Further compounds by falling IC50 (T47D), results first:

IC50 (T47D)	IC50 (MCF7)	IC50 (HeLa)	IC50 [1]	IC50 ([1]; read-out: IC50)	SMILES	IC50 (Ishikawa)	diameter of the inhibition zone (DIZ) (Staphylococcus aureus)	diameter of the inhibition zone (DIZ) (Escherichia coli)	diameter of the inhibition zone (DIZ) (Candida albicans)
14.9 µM	62.2 µM	46.7 µM	Not Active		CCOC(=O)c1c(N)sc(/N=C/c2ccco2)c1C(=O)OCC	69.3 µM	10.5 mm	<5.5 mm	<5.5 mm
13.2 µM	12.5 µM	25.9 µM		6.54 µM	CCOC(=O)c1c(N)sc(/N=C/c2ccc(Br)cc2)c1C(=O)OCC	46.1 µM	<5.5 mm	<5.5 mm	<5.5 mm
12.1 µM	6.8 µM	25.2 µM	Not Active		CCOC(=O)c1c(N)sc(/N=C/c2ccc(Cl)cc2)c1C(=O)OCC	27.1 µM	<5.5 mm	<5.5 mm	<5.5 mm
11.6 µM	18.6 µM	40.3 µM	Not Active		CCOC(=O)c1c(N)sc(N)c1C(=O)OCC	46.9 µM	10 mm	<5.5 mm	<5.5 mm
8.6 µM	92.2 µM	35.4 µM	Not Active		CCOC(=O)c1c(N)sc(/N=C/c2ccncc2)c1C(=O)OCC	119 µM	<5.5 mm	<5.5 mm	7 mm
7.1 µM	26.1 µM	21.3 µM		14.8 µM	CCOC(=O)c1c(N)sc(/N=C/c2cccs2)c1C(=O)OCC	39.8 µM	10 mm	<5.5 mm	<5.5 mm
2.3 µM	1.3 µM	14.1 µM		6.43 µM	CCOC(=O)c1c(N)sc(/N=C/c2ccc([N+](=O)[O-])cc2)c1C(=O)OCC	141 µM	8.5 mm	<5.5 mm	<5.5 mm
